Some results are limits rather than exact numbers.

Assay [1] has as its target T1, human ACSS2 protein (Homo sapiens, UniProt Q9NR19).
T1 construct: purchased OriGene Technologies, Inc
Briefly: ACSS2 cell-free activity assay (pyrophosphatase-coupled, Biomol green). The following applies: 10 nM human ACSS2, 90 minutes at 37 C, absorbance at 620 nm; read-out: ACSS2 Biochemical IC50. Put shortly:
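10 nM human ACSS2 incubated 90 min at 37 C with compound, 300 μM ATP, 10 μM CoA, 5 mM NaAc in pH 7.5 Hepes buffer with 0.5 U/ml pyrophosphatase. Released phosphate detected with Biomol Green at 620 nm; IC50 by non-linear regression constrained to 0% and 100%.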

Assay [2] has as its target T2, human ACSS1 protein (Homo sapiens, UniProt Q9NUB1).
T2 construct: purchased MyBioSource
T2 sequence (Q9NUB1 38-689): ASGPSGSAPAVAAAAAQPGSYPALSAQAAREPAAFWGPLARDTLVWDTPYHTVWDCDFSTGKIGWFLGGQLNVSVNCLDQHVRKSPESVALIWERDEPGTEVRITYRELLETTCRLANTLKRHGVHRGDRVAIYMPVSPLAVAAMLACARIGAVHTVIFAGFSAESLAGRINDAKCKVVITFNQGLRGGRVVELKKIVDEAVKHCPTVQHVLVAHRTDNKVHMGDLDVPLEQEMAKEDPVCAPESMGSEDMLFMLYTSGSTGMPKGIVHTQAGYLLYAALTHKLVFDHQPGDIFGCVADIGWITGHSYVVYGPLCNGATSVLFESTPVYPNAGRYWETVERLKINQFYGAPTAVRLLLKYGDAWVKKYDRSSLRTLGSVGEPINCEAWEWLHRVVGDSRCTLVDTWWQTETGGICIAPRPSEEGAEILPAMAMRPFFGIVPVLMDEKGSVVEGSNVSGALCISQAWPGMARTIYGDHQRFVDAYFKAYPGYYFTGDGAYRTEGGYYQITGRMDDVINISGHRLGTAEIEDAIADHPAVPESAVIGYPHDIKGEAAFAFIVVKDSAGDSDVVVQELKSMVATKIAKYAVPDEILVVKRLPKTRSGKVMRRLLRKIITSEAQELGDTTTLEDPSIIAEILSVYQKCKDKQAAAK
Briefly: ACSS1 cell-free activity assay (pyrophosphatase-coupled, Biomol green). The following applies: 5 nM human ACSS1, 30 minutes at room temperature, absorbance at 620 nm; for IC50: read-out: ACSS1 Biochemical IC50. Type of assay: biochemical. Put shortly:
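5 nM human ACSS1 incubated 30 min at RT with compound in pH 7.5 Hepes buffer with 15 μM CoA, 5 mM acetate, 300 μM ATP, 2 mM MgCl2 and pyrophosphatase. Released phosphate detected with Biomol Green (30 min), absorbance 620 nm. IC50 from constrained non-linear regression.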

Assay [3] has as its target T3, ACSS2 in MDA-MB-468 cells (Homo sapiens, UniProt Q9NR19).
T3 construct: endogenous in cells; host or cells: MDA-MB-468 cells, hypoxia (1% O2)
As to the kind of experiment: Cellular fatty-acid IC50: 13C-acetate incorporation into fatty acids (palmitate), LC-MS. In kind it is cell-based. The following applies: hypoxic conditions (1% O2), 75% charcoal stripped serum, 5 hours, 13C-acetate into palmitate, read-out: Cellular Fatty-acid IC50 High Serum MDA468. Put shortly: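 MDA-MB-468 cells under hypoxia (1% O2) treated 5 h with compound (0.000512-1000 nM) in medium with 75% charcoal-stripped serum and 0.5 mM 13C-acetate. 13C-palmitate quantified by LC-MS (negative ion, RSIM). IC50 from inhibition versus no-compound control, background-subtracted, constrained 0–100% nonlinear fit.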

T1 sequence (Q9NR19 whole entry): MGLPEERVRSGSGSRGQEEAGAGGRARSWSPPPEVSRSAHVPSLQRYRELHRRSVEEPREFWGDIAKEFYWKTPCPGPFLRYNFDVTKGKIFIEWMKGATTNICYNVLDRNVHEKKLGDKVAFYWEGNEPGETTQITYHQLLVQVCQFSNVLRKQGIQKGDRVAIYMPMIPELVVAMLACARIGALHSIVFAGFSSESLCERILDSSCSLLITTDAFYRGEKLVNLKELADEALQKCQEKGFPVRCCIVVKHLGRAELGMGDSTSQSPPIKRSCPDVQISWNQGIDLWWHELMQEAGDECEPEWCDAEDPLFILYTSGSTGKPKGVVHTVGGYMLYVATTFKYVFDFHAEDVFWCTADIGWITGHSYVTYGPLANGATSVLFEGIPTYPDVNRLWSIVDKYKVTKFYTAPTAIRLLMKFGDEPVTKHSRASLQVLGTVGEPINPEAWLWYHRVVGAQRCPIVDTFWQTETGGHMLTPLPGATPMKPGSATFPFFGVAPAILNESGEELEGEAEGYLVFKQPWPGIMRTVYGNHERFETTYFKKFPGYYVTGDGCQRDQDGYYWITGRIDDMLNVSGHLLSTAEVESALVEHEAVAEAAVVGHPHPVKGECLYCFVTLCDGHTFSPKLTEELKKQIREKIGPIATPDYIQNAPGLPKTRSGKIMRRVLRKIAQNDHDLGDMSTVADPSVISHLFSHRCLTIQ
T3 sequence (Q9NR19 whole entry): as above

With `COc1cc(Cl)c(-c2[nH]c(C)c(C(=O)Nc3cccc(C(F)(F)C4CC4)c3)[n+]2[O-])cc1-c1c(C)cccc1C` [Compound 198, 2-(4-chloro-6-methoxy-2′,6′-dimethyl-[1,1′-biphenyl]-3-yl)-4-((3-(cyclopropyldifluoromethyl)phenyl)carbamoyl)-5-methyl-1H-imidazole 3-oxide], the IC50 in assay [1] is below 1 nM; in assay [3], above 50 nM. Also, in assay [2], the “ACSS1 Biochemical IC50 (nM)” value is “Inactive”.
For `CCC(F)(F)c1cccc(NC(=O)c2c(C)[nH]c(-c3cccc(-c4c(C)cccc4C)n3)[n+]2[O-])c1` [Compound 111, 4-((3-(1,1-difluoropropyl)phenyl)carbamoyl)-2-(6-(2,6-dimethylphenyl)pyridin-2-yl)-5-methyl-1H-imidazole 3-oxide] the same measures were below 1 nM, above 50 nM and “Inactive”.
With `CCC(F)(F)c1cccc(NC(=O)c2c(C)[nH]c(-c3cccc(-c4nccnc4C)c3)[n+]2[O-])c1` [Compound 110, 4-((3-(1,1-difluoropropyl)phenyl)carbamoyl)-5-methyl-2-(3-(3-methylpyrazin-2-yl)phenyl)-1H-imidazole 3-oxide], the IC50 in assay [1] was below 1 nM; in assay [2], above 30 nM; in assay [3], below 20 nM.
Turning to `COc1cc(-c2c(C)cccc2C)cc(-c2[nH]c(C)c(C(=O)Nc3cccc(C(F)(F)C4CC4)c3)[n+]2[O-])c1` [Compound 131, 4-((3-(cyclopropyldifluoromethyl)phenyl)carbamoyl)-2-(5-methoxy-2′,6′-dimethyl-[1,1′-biphenyl]-3-yl)-5-methyl-1H-imidazole 3-oxide], the IC50 in assay [1] was below 1 nM; in assay [3], 20 to 50 nM. For the same molecule, in assay [2], the “ACSS1 Biochemical IC50 (nM)” value is “Inactive”.
Turning to `COc1ccc(-c2[nH]c(C)c(C(=O)Nc3cccc(C(C)(F)F)c3)[n+]2[O-])cc1-c1c(C)cccc1C` [Compound 120, 4-((3-(1,1-difluoroethyl)phenyl)carbamoyl)-2-(6-methoxy-2′,6′-dimethyl-[1,1′-biphenyl]-3-yl)-5-methyl-1H-imidazole 3-oxide], the IC50 in assay [1] is below 1 nM; in assay [3], below 20 nM. The “ACSS1 Biochemical IC50 (nM)” value in assay [2] was “Inactive”.
As for `COc1cc(F)c(-c2[nH]c(C)c(C(=O)Nc3cccc(C(F)(F)C4CC4)c3)[n+]2[O-])cc1-c1c(C)cccc1C` [Compound 137], the figures for the IC50 in assay [1] and in assay [3] were below 1 nM and above 50 nM, respectively. Further, in assay [2], the “ACSS1 Biochemical IC50 (nM)” value is listed as “Inactive”.
For `CCC(F)(F)c1cccc(NC(=O)c2c(C)[nH]c(-c3ccc(C#N)c(-c4c(C)cccc4C)c3)[n+]2[O-])c1` [Compound 114, 2-(6-cyano-2′,6′-dimethyl-[1,1′-biphenyl]-3-yl)-4-((3-(1,1-difluoropropyl)phenyl)carbamoyl)-5-methyl-1H-imidazole 3-oxide], the IC50 in assay [1] is below 1 nM; in assay [2], above 30 nM; in assay [3], below 20 nM.
`COc1ccc(-c2[nH]c(C)c(C(=O)Nc3cccc(C(F)(F)F)c3)[n+]2[O-])cc1-c1c(C)cccc1C` [Compound 171, 2-(6-methoxy-2′,6′-dimethyl-[1,1′-biphenyl]-3-yl)-5-methyl-4-((3-(trifluoromethyl)phenyl)carbamoyl)-1H-imidazole 3-oxide]: the IC50 is below 1 nM in assay [1] and below 20 nM in assay [3]. The “ACSS1 Biochemical IC50 (nM)” value in assay [2] was “Inactive”.
With `CCC(F)(F)c1cccc(NC(=O)c2c(C)[nH]c(-c3cc(C)cc(-c4c(C)cccc4C)c3)[n+]2[O-])c1` [Compound 106, 4-((3-(1,1-difluoropropyl)phenyl)carbamoyl)-5-methyl-2-(2′,5,6′-trimethyl-[1,1′-biphenyl]-3-yl)-1H-imidazole 3-oxide], the IC50 in assay [1] is below 1 nM; in assay [3], above 50 nM. Further, the “ACSS1 Biochemical IC50 (nM)” value in assay [2] is reported as “Inactive”.
As to `CNC(=O)c1cccc(NC(=O)c2c(C)[nH]c(-c3cccc(-c4c(C)cccc4C)c3)[n+]2[O-])c1` [Compound 176, 2-(2′,6′-dimethyl-[1,1′-biphenyl]-3-yl)-5-methyl-4-((3-(methylcarbamoyl)phenyl)carbamoyl)-1H-imidazole 3-oxide], the IC50 in assay [1] was below 1 nM; in assay [2] it was above 30 nM; in assay [3], below 20 nM.
Take `CCC(F)(F)c1cccc(NC(=O)c2c(C)[nH]c(-c3cc(CCN(C)C)c(OC)c(-c4c(C)cccc4C)c3)[n+]2[O-])c1` [Compound 169, 4-((3-(1,1-difluoropropyl)phenyl)carbamoyl)-2-(5-(2-(dimethylamino)ethyl)-6-methoxy-2′,6′-dimethyl-[1,1′-biphenyl]-3-yl)-5-methyl-1H-imidazole 3-oxide]: the values for the IC50 in assay [1] and in assay [3] were below 1 nM and below 20 nM, respectively. In addition, the “ACSS1 Biochemical IC50 (nM)” value in assay [2] is reported as “Inactive”.
Regarding `CC(=O)c1cc(-c2c(C)cccc2C)cc(-c2[nH]c(C)c(C(=O)Nc3cccc(C(F)(F)C4CC4)c3)[n+]2[O-])c1` [Compound 142, 2-(5-acetyl-2′,6′-dimethyl-[1,1′-biphenyl]-3-yl)-4-((3-(cyclopropyldifluoromethyl)phenyl)carbamoyl)-5-methyl-1H-imidazole 3-oxide], the IC50 in assay [1] is below 1 nM; in assay [3], above 50 nM. Besides, the “ACSS1 Biochemical IC50 (nM)” value in assay [2] is “Inactive”.

The values are drawn from patent publication US20230174507A1, “IMIDAZOLE 3-OXIDE DERIVATIVE BASED ACSS2 INHIBITORS AND METHODS OF USE THEREOF” (METABOMED LTD., priority 2020, published 2023).
